Data reported in patent US10017463B2, “Inhibitors of deubiquitinating proteases” (Brandeis University, priority 2014, dated 2018).

How the values were obtained:
[1] = tested on: Bcr-Abl; assay: Bcr-Abl immunoblot in BaF3/p210 cells; format: cell-based, murine; details: 4 h
Experimental: After this time cells were lysed and sonicated in S.D.S. Whole cell lysates were analyzed for Bcr-Abl and tubulin in triplicate. Panel B is a bar graph showing the quantitation of blots in Panel A. Panel C is an image of an immunoblot showing BaF3 cells were treated with various concentrations of TU50 in triplicate for 4 h, and then whole cell lysates were analyzed for Bcr-Abl and tubulin. Panel D is an image of an immunoblot similar to the experiment in Panel C but using TU46. Panel E is an image of an immunoblot similar to the experiment in Panel D but using TU49. Panel F is a plot showing the quantification of blots in Panel C, Panel D, and Panel E.
Proliferation inhibition/apoptosis assays and lysate activity profiling were all consistent with USP9x inhibition. Next, whether cell death in BaF3/p210 cells occurred through degradation of Bcr-Abl was validated. […] Encouragingly, the EC50 for Bcr-Abl degradation was 8±2 μM for TU50, which is within 2 fold of the proliferation inhibition EC50 obtained above (FIG. 7, Panel C).

[2] = tested on: Bcr-Abl; assay: Bcr-Abl immunoblot in K562 cells; format: cell-based; details: for decrease in Bcr-Abl: 30 μM, 4 h
Experimental: After this time cells were lysed and sonicated in SDS. Whole cell lysates were analyzed for Bcr-Abl and tubulin in triplicate. Panel B is a bar graph showing the quantitation of the blots in Panel A. Panel C is a plot showing differing concentrations of TU50 were added to K562 cells and after 4 h the amount of Bcr-Abl was measured in whole cell lysates.

[3] = tested on: DUBs; assay: Cy5-Ub-VME activity profiling of treated BaF3/p210 cells; format: cell-based, murine; details: 50 μM, 4 h
Experimental: (§1) FIG. 9 has two panels (A and B) depicting data showing that TUs inhibit DUBs in cells. BaF3/p210 cells were incubated with the stated concentration of compound for 4 h. After this time cells were lysed using beads, lysates were normalized, then exposed to Cy5-Ub-VME for 5 min. After quenching, lysates were resolved by SDS-PAGE, analyzed on typhoon, then stained by Coomassie. Panel A is an image of the SDS-PAGE gel visualized via Typhoon imager. Panel B is an image of the SDS PAGE gel stained with Coomassie.
Panel A is the chemical structure of TU71. Panel B is an image of an immunoblot showing a K562 cell was treated with TU71 for 15 min at which time HAUb-VS was added. After an additional 15 min, aliquots were quenched in reducing loading buffer and analyzed by SDS-PAGE and HA blot. […] BaF3/p21 0 cells were treated with TU71 for 2.5 h (Panel C) or 4 h (Panel D). Cells were harvested, lysed and incubated (0.7 mg/mL protein) with 250 nM Cy5-UbVME for 5 min at 37° C. […] Panel E is an image of an immunoblot showing BaF3/p210 cells were incubated with TU71 for 4 h. The cells were harvested, lysed, analyzed by SDS-PAGE and immunoblotted as indicated. “cPARP” indicates the caspase cleavage of product of PARP and is indicative of apoptosis. Panel F is a bar graph showing data representative of mean±range of two independent experiments, one performed in duplicate of the blot depicted in Panel E.
(§2) The increased promiscuity of the inhibitors when the experiment is carried out in cells likely stems from the increased assay time (4 h vs 20 min) coupled with the slow on rates of the inhibitors and their targets.

[4] = molecular target: T1, recombinant human 20S proteasome (Homo sapiens, UniProt P28074); assay: 20S proteasome assay (Suc-Leu-Leu-Val-Tyr-AMC); format: biochemical; details: 50 μM for the TU compounds (FIG. 6D)
T1 construct: purchased Boston Biochem
Experimental: To recombinant human 20S proteasome ([…]) in 50 mM potassium phosphate pH 7.6, 50 mM NaCl, 1 mM DTT was added the compound or DMSO. This mixture was incubated at 25° C. for 30 min after which time substrate (Suc-Leu-Leu-Val-Tyr-AMC, 100 μM or 17 μM) was added and release of AMC was measured as a function of time using a plate reader for 30 min. The steady state rates were calculated and normalized to the DMSO rate. The concentration of inhibitor required to inhibit the enzyme by 50% was calculated using prism.

[5] = tested on: MCL1; assay: MCL1 immunoblot in BaF3 parent cells; format: cell-based; details: 15 and 30 μM, 4 h
Excerpt: Panel A is an image of a immunoblot showing knockdown of MCL-1 by TU46. […] Panel C is a bar graph showing the quantitation of the blots in Panel A and Panel B.
MCL1 is required to sustain growth of many transformed cells and is also regulated by USP9x. […] These findings help to explain why these compounds are toxic to Bcr-Abl independent cancer lines, especially BaF3.

[6] = tested on: BaF3/p210 cells; assay: Proliferation assay (Alamar Blue), BaF3/p210; format: cell-based, murine; details: for EC50: Mus musculus, BaF3, fresh media with compound added after 24 h, 24 h further growth, read-out: EC50 (viable cells)
Excerpt: This cell line consists of engineered murine leukemia cells that ectopically express Bcr-Abl. Parent BaF3 cells require exogenous interleukin 3 (IL3) because IL3 stimulates expression of MCL1, which is required for survival. However, BaF3/p210 cells require no exogenous interleukins but need Bcr-Abl for survival.

[7] = molecular target: T2, UCHL3 (Mus musculus, UniProt Q9JKB1); assay: Cy5-Ub-VME activity profiling of treated BaF3/p210 cells, UCHL3; format: cell-based, murine; details: 50 μM, 4 h
T2 construct: endogenous in cells; host or cells: BaF3/p210
T2 sequence (Q9JKB1 1-230): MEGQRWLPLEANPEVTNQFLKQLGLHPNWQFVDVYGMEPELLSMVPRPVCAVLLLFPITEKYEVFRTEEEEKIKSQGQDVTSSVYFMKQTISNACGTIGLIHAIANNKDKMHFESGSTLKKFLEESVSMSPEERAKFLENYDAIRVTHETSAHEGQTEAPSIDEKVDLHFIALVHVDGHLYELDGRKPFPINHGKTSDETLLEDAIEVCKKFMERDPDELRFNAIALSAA
Experimental: as §1, §2

[8] = molecular target: T3, USP7 catalytic domain (USP7CD) (Homo sapiens, UniProt Q93009); assay: USP7 catalytic domain, Cy5-Ub-VME activity profiling; format: biochemical; details: at 12.5 μM
T3 construct: USP7 catalytic domain (USP7CD)
Experimental: Panel A is an image showing that purified recombinant USP9x (7 nM) was treated with the stated compound at 50 μM for 19 min prior to addition of Cy5-Ub-VME for 5 min, then the mixture was resolved by S.D.S-PAGE and analyzed on a typhoon imager. Panel B is an image of an immunoblot showing purified recombinant USP9x (7 nM) and USP7CD (20 nM) were treated with the stated compound at the stated concentration for 19 min prior to addition of Cy5-Ub-VME for 5 min then the mixture was resolved by S.D.S-PAGE and analyzed on a Typhoon imager.
In addition, the amount of free inhibitor is unknown and thus the true kon could be much higher.

[9] = tested on: B16-F10; assay: Proliferation assay, B16-F10; details: Mus musculus, B16-F10, 72 h, read-out: EC50 growth inhibition B16-F10
Experimental: Proliferation assays for adherent cells were conducted by plating cells at 5%-10% confluence in 96 well plates together with compound or 0.1% DMSO. Cells were allowed to grow for 48 h and then Alamar Blue® was added and number of cells was measured by fluorescence on a microplate reader.

[10] = whole cell lysates sonicated, read-out: EC50 for Bcr-Abl degradation/knockdown

T3 sequence (Q93009 214-521 limits assumed, species assumed): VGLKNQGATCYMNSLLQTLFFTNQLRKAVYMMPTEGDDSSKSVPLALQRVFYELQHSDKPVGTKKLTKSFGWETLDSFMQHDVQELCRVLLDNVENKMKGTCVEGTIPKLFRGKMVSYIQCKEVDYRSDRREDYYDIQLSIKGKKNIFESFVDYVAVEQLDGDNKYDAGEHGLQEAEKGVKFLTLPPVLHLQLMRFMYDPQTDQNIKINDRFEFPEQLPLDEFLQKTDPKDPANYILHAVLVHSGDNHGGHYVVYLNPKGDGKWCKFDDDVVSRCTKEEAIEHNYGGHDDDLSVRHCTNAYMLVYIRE

Row | Structure (SMILES) | EC50 ([1]; unsonicated, read-out: EC50 for Bcr-Abl knockdown) | EC50 [1, 10] | decrease in Bcr-Abl [2] | Cy5-Ub-VME labelled bands after treatment of cells [3] | inhibition of pure 20S proteasome [4] | knockdown of MCL1 [5] | growth inhibition of BaF3/p210 cells [6] | selectivity for BaF3/p210 over NIH3T3 cells [6] | selectivity for BaF3/p210 over other cancer lines [6] | EC50 [6] | effect on UCHL3 [7] | inhibition of USP7CD [8] | EC50 [9] | EC50 ([2]; K562, 4 h, read-out: EC50 for Bcr-Abl degradation)
1 | CC(C)(C)OC(=O)NCCc1ccc(N=C=S)cc1 [TU46] | 15 ± 7 µM | 9 ± 3 µM | four-fold decrease | decrease in a number of bands in addition to the band corresponding to USP9x | did not inhibit | very effective | good growth inhibition | over a ten-fold selectivity | at least a five-fold selectivity | 11 µM | relatively unaffected | little inhibition | 70 ± 20 µM | –
2 | O=C(NCc1ccc(N=C=S)cc1)OCc1ccccc1 [TU49] | – | 9 ± 5 µM | four-fold decrease | decrease in a number of bands in addition to the band corresponding to USP9x | did not inhibit | not as efficient | good growth inhibition | – | – | – | relatively unaffected | little inhibition | ~30 µM | –
3 | CC(C)(C)OC(=O)NCc1cccc(N=C=S)c1 [TU50] | – | 8 ± 2 µM | four-fold decrease | decrease in a number of bands in addition to the band corresponding to USP9x | did not inhibit | very effective | good growth inhibition | over a ten-fold selectivity | at least a five-fold selectivity | 16 µM | relatively unaffected | little inhibition | 85 ± 10 µM | 12 µM
